The source of these data is ChEMBL document CHEMBL5390283, “Discovery of PVD-06 as a Subtype-Selective and Efficient PTPN2 Degrader” (J Med Chem, 2023).

Experiment [1] concerns the target T1, von Hippel-Lindau disease tumor suppressor/Tyrosine-protein phosphatase non-receptor type 2 (Homo sapiens, UniProt P17706+P40337). The experiment can be described thus: PROTAC activity at VHL/PTPN2 in human Jurkat cells assessed as induction of PTPN2 degradation at 1 uM by Western blot analysis. The class given is cell-based. To be noted: time 1-48 hrs, TDE = time-dependent effect. (Immunoblotting shows a protein as a band on a membrane.)
Target sequence in this assay (P40337 whole entry, looked up, one chain of several): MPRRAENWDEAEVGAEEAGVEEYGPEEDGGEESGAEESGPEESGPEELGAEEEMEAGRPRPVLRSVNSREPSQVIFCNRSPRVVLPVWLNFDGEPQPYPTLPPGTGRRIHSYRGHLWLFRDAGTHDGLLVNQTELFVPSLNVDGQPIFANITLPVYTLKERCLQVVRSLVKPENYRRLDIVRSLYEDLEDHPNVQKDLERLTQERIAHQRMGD

For experiment [2], the system named is Jurkat. The experiment can be described thus: Effect on PTPN7 level in human Jurkat cells at 1 uM incubated for 24 hrs by label free proteomic analysis. The class given is functional, cell-based.
Experiment [3] has as its system Jurkat. Put plainly: Effect on STAT1 level in human Jurkat cells at 0.1 to 10 uM incubated for 24 hrs by Western blot analysis. To be noted: dose 0.1-10 µM. The class given is functional, cell-based.
For experiment [4], the system named is Jurkat. Put plainly: Effect on PTPN11 level in human Jurkat cells at 1 uM incubated for 24 hrs by label free proteomic analysis. The class given is functional, cell-based.
Experiment [5] addresses T1, von Hippel-Lindau disease tumor suppressor/Tyrosine-protein phosphatase non-receptor type 2. Put plainly: PROTAC activity at VHL/PTPN2 in human Jurkat cells assessed as induction of PTPN2 degradation at 1 uM by Western blot analysis relative to control. The class given is cell-based.
Target sequence in this assay (P40337 whole entry, looked up, one chain of several): as above
For the next experiment, the system named is HepG2. Put plainly: Effect on PTP1B level in human HepG2 cells at 0.013 to 10 uM by Western blot analysis. The class given is functional, cell-based. To be noted: dose 0.013-10 µM.
In experiment [6] the test system is B16-F10. Put plainly: Inhibition of cell growth in IFN-gamma-treated mouse B16-F10 cells assessed as reduction in cell confluency measured upto 96 hrs. The class given is functional, cell-based. To be noted: dose 1.25-5 µM.
In experiment [7] the test system is Jurkat. The experiment can be described thus: Effect on PTPN9 level in human Jurkat cells at 1 uM incubated for 24 hrs by label free proteomic analysis. It is filed as functional, cell-based.
For experiment [8], the target named is T1, von Hippel-Lindau disease tumor suppressor/Tyrosine-protein phosphatase non-receptor type 2. The experiment can be described thus: PROTAC activity at VHL/PTPN2 in human Jurkat cells assessed as induction of PTPN2 degradation at 10 uM by Western blot analysis relative to control. The class given is cell-based.
Target sequence in this assay (P40337 whole entry, looked up, one chain of several): as above
Experiment [9] deals with Jurkat. The experiment can be described thus: Effect on PTP1B level in human Jurkat cells at 1 uM incubated for 1 to 48 hrs by Western blot analysis. To be noted: time 1-48 hrs. The class given is functional, cell-based.
Experiment [10] concerns the target T1, von Hippel-Lindau disease tumor suppressor/Tyrosine-protein phosphatase non-receptor type 2. The experiment can be described thus: PROTAC activity at VHL/PTPN2 in human Jurkat cells assessed as induction of PTPN2 degradation by Western blot analysis. The class given is cell-based.
Target sequence in this assay (P40337 whole entry, one chain of several): as the sequence (P40337 whole entry, looked up, one chain of several) above
In experiment [11] the target is T2, von Hippel-Lindau disease tumor suppressor/Receptor-type tyrosine-protein phosphatase N2 (Mus musculus) (UniProt P40338+P80560). The experiment can be described thus: PROTAC activity at VHL/PTPN2 in mouse B16-F10 cells assessed as induction of PTPN2 degradation at 0.013 to 10 uM by Western blot analysis. The class given is cell-based. To be noted: dose 0.013-10 µM.
T2 sequence (P40338 whole entry, looked up): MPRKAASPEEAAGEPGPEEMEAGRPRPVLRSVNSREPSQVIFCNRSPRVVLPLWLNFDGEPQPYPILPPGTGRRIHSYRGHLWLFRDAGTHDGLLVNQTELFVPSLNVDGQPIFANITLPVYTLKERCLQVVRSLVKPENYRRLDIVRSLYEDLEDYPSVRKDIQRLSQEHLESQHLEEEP
T2 sequence (P80560 whole entry, looked up): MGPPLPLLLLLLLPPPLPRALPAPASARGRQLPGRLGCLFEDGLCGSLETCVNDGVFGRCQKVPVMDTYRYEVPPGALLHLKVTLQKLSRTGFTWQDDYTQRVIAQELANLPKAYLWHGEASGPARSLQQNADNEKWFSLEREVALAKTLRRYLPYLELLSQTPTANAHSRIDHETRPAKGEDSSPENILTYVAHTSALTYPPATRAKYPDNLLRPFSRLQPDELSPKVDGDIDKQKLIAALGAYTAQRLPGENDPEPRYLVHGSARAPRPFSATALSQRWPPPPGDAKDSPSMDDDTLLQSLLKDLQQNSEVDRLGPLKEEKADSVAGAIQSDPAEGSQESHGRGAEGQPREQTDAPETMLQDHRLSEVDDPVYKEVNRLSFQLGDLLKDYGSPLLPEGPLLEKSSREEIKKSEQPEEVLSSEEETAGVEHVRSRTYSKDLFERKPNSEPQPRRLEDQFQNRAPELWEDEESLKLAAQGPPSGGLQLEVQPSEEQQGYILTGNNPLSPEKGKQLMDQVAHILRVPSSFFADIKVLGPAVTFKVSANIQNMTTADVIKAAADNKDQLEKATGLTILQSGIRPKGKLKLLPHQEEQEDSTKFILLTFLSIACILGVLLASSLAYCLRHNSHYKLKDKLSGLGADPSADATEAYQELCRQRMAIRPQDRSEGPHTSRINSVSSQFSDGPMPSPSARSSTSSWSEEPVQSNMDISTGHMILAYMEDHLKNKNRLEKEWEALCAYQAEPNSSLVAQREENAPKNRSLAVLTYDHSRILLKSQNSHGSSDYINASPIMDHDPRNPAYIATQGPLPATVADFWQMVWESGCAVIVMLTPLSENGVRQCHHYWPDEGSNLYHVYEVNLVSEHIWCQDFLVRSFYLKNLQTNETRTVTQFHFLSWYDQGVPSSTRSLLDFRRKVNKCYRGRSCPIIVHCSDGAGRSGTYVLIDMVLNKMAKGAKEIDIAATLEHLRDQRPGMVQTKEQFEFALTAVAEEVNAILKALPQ

Experiment [12] concerns the target T1, von Hippel-Lindau disease tumor suppressor/Tyrosine-protein phosphatase non-receptor type 2. Put plainly: PROTAC activity at VHL/PTPN2 in human Jurkat cells assessed as increase in STAT1 phosphorylation incubated for 23 hrs followed by IFN-gamma stimulation for 1 hr by Western blot analysis. To be noted: dose <= 10.0 µM, time 24.0 hrs. It is filed as cell-based.
Target sequence in this assay (P40337 whole entry, looked up, one chain of several): as the sequence (P40337 whole entry, looked up, one chain of several) above

Experiment [13] concerns Jurkat. Put plainly: Effect on PTPN6 level in human Jurkat cells at 1 uM incubated for 24 hrs by label free proteomic analysis. It is filed as functional, cell-based.
Experiment [14] has as its system Jurkat. The experiment can be described thus: Effect on PTPN18 level in human Jurkat cells at 1 uM incubated for 24 hrs by label free proteomic analysis. The class given is functional, cell-based.
Experiment [15] relates to Jurkat. Put plainly: Effect on PTPN23 level in human Jurkat cells at 1 uM incubated for 24 hrs by label free proteomic analysis. The class given is functional, cell-based.
The target of experiment [16] is T1, von Hippel-Lindau disease tumor suppressor/Tyrosine-protein phosphatase non-receptor type 2. Put plainly: PROTAC activity at VHL/PTPN2 in human HepG2 cells assessed as induction of PTPN2 degradation at 0.013 to 10 uM by Western blot analysis. The class given is cell-based. To be noted: dose 0.013-10 µM.
Target sequence in this assay (P40337 whole entry, looked up, one chain of several): as above
In experiment [17] the test system is Jurkat. The experiment can be described thus: Effect on PTP1B level in human Jurkat cells at 0.1 to 10 uM incubated for 24 hrs by Western blot analysis. The class given is functional, cell-based. To be noted: dose 0.1-10 µM.
Experiment [18] deals with T1, von Hippel-Lindau disease tumor suppressor/Tyrosine-protein phosphatase non-receptor type 2. The experiment can be described thus: PROTAC activity at VHL/PTPN2 in IFN-gamma-stimulated human Jurkat cells assessed as increase in STAT1 phosphorylation at 0.1 to 10 uM incubated for 24 hrs by Western blot analysis. The class given is cell-based. The settings on record: dose 0.1-10 µM.
Target sequence in this assay (P40337 whole entry, looked up, one chain of several): as above

For experiment [19], the target named is von Hippel-Lindau disease tumor suppressor/Tyrosine-protein phosphatase non-receptor type 1 (Homo sapiens, UniProt P18031+P40337). Put plainly: PROTAC activity at VHL/PTP1B in human Jurkat cells assessed as induction of PTP1B degradation by Western blot analysis. The class given is cell-based.
Sequence of von Hippel-Lindau disease tumor suppressor/Tyrosine-protein phosphatase non-receptor type 1 (P40337 whole entry, one chain of several): as the sequence (P40337 whole entry, looked up, one chain of several) above
The test system of experiment [20] is Jurkat. The experiment can be described thus: Effect on PTPN1 level in human Jurkat cells at 1 uM incubated for 24 hrs by label free proteomic analysis. It is filed as functional, cell-based.
Experiment [21] has as its target T2, von Hippel-Lindau disease tumor suppressor/Receptor-type tyrosine-protein phosphatase N2 (Mus musculus). The experiment can be described thus: PROTAC activity at VHL/PTPN2 in mouse splenocytes assessed as induction of PTPN2 degradation at 0.013 to 10 uM by Western blot analysis. It is filed as cell-based. The settings on record: Splenocyte, dose 0.013-10 µM.

The subject of experiment [22] is B16-F10. Put plainly: Effect on SHP-2 level in mouse B16-F10 cells at 0.013 to 10 uM by Western blot analysis. The class given is functional, cell-based. The settings on record: dose 0.013-10 µM.
Experiment [23] deals with T1, von Hippel-Lindau disease tumor suppressor/Tyrosine-protein phosphatase non-receptor type 2. The experiment can be described thus: PROTAC activity at VHL/PTPN2 in human Jurkat cells assessed as induction of PTPN2 degradation at 100 nM by Western blot analysis relative to control. The class given is cell-based.
The subject of experiment [24] is B16-F10. The experiment can be described thus: Effect on PTP1B level in mouse B16-F10 cells at 0.013 to 10 uM by Western blot analysis. The class given is functional, cell-based. The settings on record: dose 0.013-10 µM.
Experiment [25] has as its system Splenocyte. The experiment can be described thus: Effect on SHP-1 level in mouse splenocytes at 0.013 to 10 uM by Western blot analysis. The class given is functional, cell-based. To be noted: dose 0.013-10 µM.
Experiment [26] has as its system Splenocyte. Put plainly: Effect on SHP-2 level in mouse splenocytes cells at 0.013 to 10 uM by Western blot analysis. To be noted: dose 0.013-10 µM. It is filed as functional, cell-based.
The target in experiment [27] is T1, von Hippel-Lindau disease tumor suppressor/Tyrosine-protein phosphatase non-receptor type 2. The experiment can be described thus: PROTAC activity at VHL/PTPN2 in IFN-gamma-stimulated human Jurkat cells assessed as induction of PTPN2 degradation at 0.1 to 10 uM incubated for 24 hrs by Western blot analysis. The class given is cell-based. The settings on record: dose 0.1-10 µM.

The subject of experiment [28] is B16-F10. The experiment can be described thus: Effect on SHP-1 level in mouse B16-F10 cells at 0.013 to 10 uM by Western blot analysis. It is filed as functional, cell-based. To be noted: dose 0.013-10 µM.
Experiment [29] has as its system Splenocyte. The experiment can be described thus: Effect on PTP1B level in mouse splenocytes at 0.013 to 10 uM by Western blot analysis. To be noted: dose 0.013-10 µM. It is filed as functional, cell-based.
Experiment [30] deals with Splenocyte. Put plainly: Induction of cell proliferation in anti-CD3/CD28-stimulated mouse splenocytes incubated for 3 days by CFSE dye based flow cytometry. It is filed as functional. The settings on record: dose 1.25-5 µM, time 3.0 day. (A flow cytometer gives signals particle by particle.)
The target of experiment [31] is T1, von Hippel-Lindau disease tumor suppressor/Tyrosine-protein phosphatase non-receptor type 2. The experiment can be described thus: PROTAC activity at VHL/PTPN2 in human Jurkat cells assessed as induction of PTPN2 degradation at 1 uM incubated for 24 hrs by label free proteomic analysis. It is filed as cell-based.
For experiment [32], the target named is T3, Tyrosine-protein phosphatase non-receptor type 1 (Homo sapiens, UniProt P18031).
T3 sequence (P18031 whole entry): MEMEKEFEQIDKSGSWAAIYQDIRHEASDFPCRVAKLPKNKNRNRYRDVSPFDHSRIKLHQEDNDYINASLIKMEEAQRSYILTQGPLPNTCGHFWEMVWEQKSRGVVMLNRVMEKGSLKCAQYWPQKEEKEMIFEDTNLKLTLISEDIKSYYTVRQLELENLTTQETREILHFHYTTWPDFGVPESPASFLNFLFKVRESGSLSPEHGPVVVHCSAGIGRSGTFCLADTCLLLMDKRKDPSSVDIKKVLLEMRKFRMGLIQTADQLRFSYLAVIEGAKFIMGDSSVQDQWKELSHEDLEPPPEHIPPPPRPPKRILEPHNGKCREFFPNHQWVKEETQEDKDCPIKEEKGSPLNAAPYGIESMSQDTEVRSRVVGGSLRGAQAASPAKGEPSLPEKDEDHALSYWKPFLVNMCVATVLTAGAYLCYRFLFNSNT
Put plainly: Inhibition of PTP1B (unknown origin) using DiFMUP as substrate by […] based assay.

Experiment [33] has as its target T4, Tyrosine-protein phosphatase non-receptor type 2 (Homo sapiens, UniProt P17706).
T4 sequence (P17706 whole entry): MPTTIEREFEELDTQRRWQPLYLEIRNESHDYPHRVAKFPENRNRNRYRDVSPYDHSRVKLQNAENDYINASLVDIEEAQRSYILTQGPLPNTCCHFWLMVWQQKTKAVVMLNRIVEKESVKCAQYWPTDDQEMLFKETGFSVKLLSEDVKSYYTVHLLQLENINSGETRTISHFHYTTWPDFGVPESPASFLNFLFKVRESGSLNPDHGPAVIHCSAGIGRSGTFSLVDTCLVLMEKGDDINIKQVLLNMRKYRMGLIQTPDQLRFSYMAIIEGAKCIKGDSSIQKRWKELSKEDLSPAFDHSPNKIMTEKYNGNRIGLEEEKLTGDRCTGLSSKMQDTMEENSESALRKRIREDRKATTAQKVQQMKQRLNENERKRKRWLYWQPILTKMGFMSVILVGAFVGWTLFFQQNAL
The experiment can be described thus: Inhibition of PTPN2 (unknown origin) using DiFMUP as substrate by […] based assay.

For experiment [34], the target named is T3, Tyrosine-protein phosphatase non-receptor type 1. The experiment can be described thus: Inhibition of 6xHis-tagged PTP1B (unknown origin) Escherichia coli BL21 (DE3)-RIL using OMFP as substrate incubated for 30 mins by fluorescence based assay.

Active and inactive are the calls of the source. The rule behind the calls is not given here.

`Cc1ncsc1-c1ccc([C@H](C)NC(=O)[C@@H]2C[C@@H](O)CN2C(=O)[C@@H](NC(=O)CCCCCNC(=O)Cn2cc(-c3ccc4cc(O)c(N5CC(=O)NS5(=O)=O)c(F)c4c3)cn2)C(C)(C)C)cc1`: the Activity entry in experiment [1] was “Tde”; in [5], 81%; in [8] it was 99%; in experiment [12], “Dose-Dependent Effect”; in experiment [23] it was 43%; with Splenocyte [30] it was “Dose-Dependent Effect”. Besides, the outcome in the experiment on Jurkat [2], with Jurkat [3], in the experiment on Jurkat [4], in the experiment on HepG2, in the experiment on Jurkat [7] and in the experiment with Jurkat [9] was inactive. The result (in the experiment with Jurkat [13]; in the experiment with Jurkat [14]; in the experiment with Jurkat [15]; in the experiment with Jurkat [17]; in experiment [18]; with Jurkat [20]) was inactive. Moreover, the outcome (with B16-F10 [22]; in the experiment on B16-F10 [24]; in the experiment on Splenocyte [25]; with Splenocyte [26]; in [27]; in the experiment with B16-F10 [28]) was inactive. Besides, in the experiment on Splenocyte [29], the result was inactive. The inhibition entry in the experiment with B16-F10 [6] is “Dose-Dependent Effect”. Besides, the EC50 (commonly the midpoint of the concentration-response curve) in experiment [10] was 217 nM; in [19] it was 13100 nM. In addition, the result in experiment [11], in experiment [16], in [18] (DEGRADER), in experiment [21], in [27] (DEGRADER) and in [31] was Active.

On to `O=C1CN(c2c(O)cc3ccc(Br)cc3c2F)S(=O)(=O)N1`, for which the IC50 (in general, the point on the concentration scale where inhibition reaches its midpoint) was 8.39 nM in experiment [32] and 11.4 nM in [33].

For the compound `CC(C)(C)C(=O)Nc1ccc2c(c1)C(=O)C(=O)c1ccccc1-2`, the midpoint of inhibition in [34], the IC50, lay at 950 nM.
